Data as given in ChEMBL document CHEMBL1201862, “PubChem BioAssay data set” (2004).
Active and inactive are the calls of the source.

Experiments:
[1] = target: T1, Methionyl-tRNA synthetase, putative (Trypanosoma brucei brucei, UniProt Q38C91); assay type: functional, Trypanosoma brucei brucei strain 927/4 GUTat10.1
T1 sequence (Q38C91 whole entry): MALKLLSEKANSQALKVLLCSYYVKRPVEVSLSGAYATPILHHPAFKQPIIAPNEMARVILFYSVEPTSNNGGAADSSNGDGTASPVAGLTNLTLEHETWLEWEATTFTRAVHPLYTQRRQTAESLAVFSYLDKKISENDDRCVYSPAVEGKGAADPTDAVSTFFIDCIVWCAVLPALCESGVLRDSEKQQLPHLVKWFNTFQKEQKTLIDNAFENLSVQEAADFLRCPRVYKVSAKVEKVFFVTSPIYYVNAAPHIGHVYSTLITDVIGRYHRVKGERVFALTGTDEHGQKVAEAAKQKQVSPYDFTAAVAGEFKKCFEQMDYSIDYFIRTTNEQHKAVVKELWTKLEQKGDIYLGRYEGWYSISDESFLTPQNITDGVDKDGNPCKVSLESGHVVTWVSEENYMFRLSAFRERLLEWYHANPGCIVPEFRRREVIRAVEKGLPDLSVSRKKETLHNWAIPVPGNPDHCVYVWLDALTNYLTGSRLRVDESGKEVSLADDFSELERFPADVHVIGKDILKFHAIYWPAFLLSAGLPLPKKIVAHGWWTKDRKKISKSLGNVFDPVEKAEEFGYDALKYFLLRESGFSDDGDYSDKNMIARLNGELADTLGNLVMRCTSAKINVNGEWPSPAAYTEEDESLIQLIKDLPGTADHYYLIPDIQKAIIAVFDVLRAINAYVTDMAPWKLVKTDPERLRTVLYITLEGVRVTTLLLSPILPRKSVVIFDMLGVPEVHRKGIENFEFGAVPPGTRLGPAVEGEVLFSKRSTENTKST

[2] = Counterscreen for inhibitors of Trypanosoma brucei methionyl tRNA synthetase (MetRS): Luminescence-based cell-based high throughput dose response assay to identify compounds that are cytotoxic to Jurkat human T lymphocyte cells.; assay type: functional
[3] = target: T1, Methionyl-tRNA synthetase, putative; assay type: functional, Trypanosoma brucei brucei strain 927/4 GUTat10.1; remark: listed apart in the source
[4] = target: T2, Histone-lysine N-methyltransferase NSD2 (Homo sapiens, UniProt O96028); assay type: biochemical
T2 sequence (O96028 whole entry): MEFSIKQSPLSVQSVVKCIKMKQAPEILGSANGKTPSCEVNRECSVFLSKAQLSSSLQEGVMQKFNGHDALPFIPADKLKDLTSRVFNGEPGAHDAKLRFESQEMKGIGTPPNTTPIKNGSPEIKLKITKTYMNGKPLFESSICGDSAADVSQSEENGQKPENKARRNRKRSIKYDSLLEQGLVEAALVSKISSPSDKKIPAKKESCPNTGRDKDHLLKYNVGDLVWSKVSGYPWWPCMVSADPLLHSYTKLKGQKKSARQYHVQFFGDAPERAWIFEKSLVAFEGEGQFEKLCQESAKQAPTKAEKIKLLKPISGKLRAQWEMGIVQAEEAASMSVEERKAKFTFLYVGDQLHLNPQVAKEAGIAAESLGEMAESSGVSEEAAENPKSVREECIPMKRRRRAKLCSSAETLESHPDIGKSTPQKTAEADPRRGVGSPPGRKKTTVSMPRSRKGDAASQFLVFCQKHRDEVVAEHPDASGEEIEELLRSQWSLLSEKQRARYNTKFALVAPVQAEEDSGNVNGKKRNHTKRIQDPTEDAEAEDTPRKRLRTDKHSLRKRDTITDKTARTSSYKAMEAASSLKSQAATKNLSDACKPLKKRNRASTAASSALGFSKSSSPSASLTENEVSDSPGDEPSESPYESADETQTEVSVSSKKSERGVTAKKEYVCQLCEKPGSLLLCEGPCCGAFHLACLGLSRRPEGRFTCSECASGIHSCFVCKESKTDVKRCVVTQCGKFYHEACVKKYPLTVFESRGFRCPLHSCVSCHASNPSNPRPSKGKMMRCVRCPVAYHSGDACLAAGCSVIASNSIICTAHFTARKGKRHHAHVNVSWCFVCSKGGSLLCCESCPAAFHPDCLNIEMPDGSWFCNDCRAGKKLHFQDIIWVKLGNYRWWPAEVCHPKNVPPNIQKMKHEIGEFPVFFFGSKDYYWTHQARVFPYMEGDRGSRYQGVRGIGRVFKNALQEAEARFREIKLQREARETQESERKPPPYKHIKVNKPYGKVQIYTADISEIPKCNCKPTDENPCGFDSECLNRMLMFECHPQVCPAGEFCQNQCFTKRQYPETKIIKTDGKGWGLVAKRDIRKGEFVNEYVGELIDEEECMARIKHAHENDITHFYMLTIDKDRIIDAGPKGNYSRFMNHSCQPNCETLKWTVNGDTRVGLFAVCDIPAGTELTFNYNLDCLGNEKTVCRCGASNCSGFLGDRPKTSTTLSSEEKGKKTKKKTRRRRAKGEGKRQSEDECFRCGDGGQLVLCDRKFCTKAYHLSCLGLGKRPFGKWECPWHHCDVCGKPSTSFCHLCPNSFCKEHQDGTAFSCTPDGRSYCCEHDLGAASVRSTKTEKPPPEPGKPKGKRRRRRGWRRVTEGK

[5] = target: T3, Fatty acid synthase (Homo sapiens, UniProt P49327); assay: FAS thioesterase domain inhibitors, dose response, biochemical, endpoint fluorescence intensity, uHTS hits (AID 624327); assay type: functional;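 note: fluorescence from hydrolysis of an O-methyl fluorescein acyl ester substrate by the enzyme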
[6] = target: T4, Small ubiquitin-related modifier 1 (Homo sapiens, UniProt P63165); assay: inhibitors of SUMO1 peptide binding, dose response, biochemical, fluorescence polarization, uHTS hits (AID 624382); assay type: functional; details: read-out: IC50_Mean
[7] = target: T3, Fatty acid synthase; assay: FAS thioesterase domain inhibitors, dose response, biochemical, kinetic fluorescence intensity (AID 624326); assay type: functional;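 note: rate of fluorescence rise from hydrolysis of a fluorogenic O-methyl fluorescein ester substrate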
[8] = target: T5, Caspase-6 (Homo sapiens, UniProt P55212); assay: human caspase-6 inhibitors, dose response, biochemical, VEID-R110 fluorescence, cherry-pick (AID 720632)
T5 sequence (P55212 whole entry): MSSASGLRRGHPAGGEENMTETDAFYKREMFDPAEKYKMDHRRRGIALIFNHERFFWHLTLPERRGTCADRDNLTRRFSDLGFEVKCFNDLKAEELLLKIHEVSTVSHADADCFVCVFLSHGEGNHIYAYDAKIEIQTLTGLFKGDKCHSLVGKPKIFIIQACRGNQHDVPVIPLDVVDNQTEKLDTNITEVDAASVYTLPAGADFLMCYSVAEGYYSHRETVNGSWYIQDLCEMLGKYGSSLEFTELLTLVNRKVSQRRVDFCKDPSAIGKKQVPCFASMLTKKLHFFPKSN

[9] = ARNT/TACC3 interaction disruptors, potency, confirmation, biochemical, AlphaScreen, cherry-picked samples (AID 651703); assay type: functional, Homo sapiens;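 note: His-tagged ARNT PAS-B domain paired with GST-TACC3 E629A dimer coactivator fragment; potency of inhibitors that break up the complex and lower AlphaScreen signal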
[10] = target: T4, Small ubiquitin-related modifier 1; assay: inhibitors of SUMO1 partner interactions, dose response, biochemical, FRET (AID 624383); assay type: functional; details: read-out: IC50_Mean
[11] = target: T6, Type-1 angiotensin II receptor (Homo sapiens, UniProt P30556); assay: AT1 receptor antagonists, dose response, selectivity assay for APJ receptor antagonist project, cell-based, uHTS hits (AID 463214); assay type: functional;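 note: antagonist potency against angiotensin II stimulated AT1 response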
T6 sequence (P30556 whole entry): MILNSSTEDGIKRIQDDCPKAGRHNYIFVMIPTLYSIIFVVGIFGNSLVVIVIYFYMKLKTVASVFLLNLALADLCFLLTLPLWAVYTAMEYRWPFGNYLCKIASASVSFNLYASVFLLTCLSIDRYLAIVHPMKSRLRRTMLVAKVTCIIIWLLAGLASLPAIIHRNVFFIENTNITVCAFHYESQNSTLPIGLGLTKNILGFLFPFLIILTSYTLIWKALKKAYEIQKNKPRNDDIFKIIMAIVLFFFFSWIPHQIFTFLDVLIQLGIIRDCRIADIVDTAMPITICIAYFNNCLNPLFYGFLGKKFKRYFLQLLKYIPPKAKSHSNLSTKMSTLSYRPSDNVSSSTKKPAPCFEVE

[12] = target: T7, Beta-galactosidase (Escherichia coli, UniProt Q8VNN2); assay: PubChem AID 485352; assay type: functional
[13] = target: T7, Beta-galactosidase; assay: Dose response counterscreen for EBI2 assay utilizing the enzyme, b-galactosidase.; assay type: functional
[14] = target: T8, Microphthalmia-associated transcription factor (Homo sapiens, UniProt O75030); assay: TRPM1 promoter luciferase signal decrease, dose response, MITF inhibitor project, cell-based, SK-MEL-5, cherry-picked, set 3 (AID 493073); assay type: functional
T8 sequence (O75030 whole entry): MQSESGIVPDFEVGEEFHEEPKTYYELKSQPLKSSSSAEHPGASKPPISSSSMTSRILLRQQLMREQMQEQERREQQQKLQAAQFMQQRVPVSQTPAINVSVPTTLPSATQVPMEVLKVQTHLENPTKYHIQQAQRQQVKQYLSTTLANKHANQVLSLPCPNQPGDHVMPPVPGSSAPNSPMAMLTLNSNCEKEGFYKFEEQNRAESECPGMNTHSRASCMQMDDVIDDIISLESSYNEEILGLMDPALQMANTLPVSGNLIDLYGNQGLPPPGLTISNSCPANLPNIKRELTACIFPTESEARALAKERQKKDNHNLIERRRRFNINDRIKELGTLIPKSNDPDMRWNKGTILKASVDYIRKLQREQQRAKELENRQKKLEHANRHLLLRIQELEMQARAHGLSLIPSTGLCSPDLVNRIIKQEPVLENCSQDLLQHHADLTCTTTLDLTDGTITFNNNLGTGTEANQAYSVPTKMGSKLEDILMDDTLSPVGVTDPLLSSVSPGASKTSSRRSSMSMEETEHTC

[15] = Counterscreen for activators of the function of SWI/SNF related, matrix associated, actin dependent regulator of chromatin, subfamily a, member 2 (SMARCA2, BRM): Luminescence-based cell-based high throughput dose response assay to identify non-selective compounds using the VP16 reporter assay.; assay type: functional
[16] = target: SWI/SNF-related matrix-associated actin-dependent regulator of chromatin subfamily A member 2 (Homo sapiens, UniProt P51531); assay: Luminescence-based cell-based high throughput dose response assay to identify activators of the function of SWI/SNF related, matrix associated, actin dependent regulator of chromatin, subfamily a, member 2 (SMARCA2, BRM).; assay type: functional

T7 sequence (Q8VNN2 whole entry): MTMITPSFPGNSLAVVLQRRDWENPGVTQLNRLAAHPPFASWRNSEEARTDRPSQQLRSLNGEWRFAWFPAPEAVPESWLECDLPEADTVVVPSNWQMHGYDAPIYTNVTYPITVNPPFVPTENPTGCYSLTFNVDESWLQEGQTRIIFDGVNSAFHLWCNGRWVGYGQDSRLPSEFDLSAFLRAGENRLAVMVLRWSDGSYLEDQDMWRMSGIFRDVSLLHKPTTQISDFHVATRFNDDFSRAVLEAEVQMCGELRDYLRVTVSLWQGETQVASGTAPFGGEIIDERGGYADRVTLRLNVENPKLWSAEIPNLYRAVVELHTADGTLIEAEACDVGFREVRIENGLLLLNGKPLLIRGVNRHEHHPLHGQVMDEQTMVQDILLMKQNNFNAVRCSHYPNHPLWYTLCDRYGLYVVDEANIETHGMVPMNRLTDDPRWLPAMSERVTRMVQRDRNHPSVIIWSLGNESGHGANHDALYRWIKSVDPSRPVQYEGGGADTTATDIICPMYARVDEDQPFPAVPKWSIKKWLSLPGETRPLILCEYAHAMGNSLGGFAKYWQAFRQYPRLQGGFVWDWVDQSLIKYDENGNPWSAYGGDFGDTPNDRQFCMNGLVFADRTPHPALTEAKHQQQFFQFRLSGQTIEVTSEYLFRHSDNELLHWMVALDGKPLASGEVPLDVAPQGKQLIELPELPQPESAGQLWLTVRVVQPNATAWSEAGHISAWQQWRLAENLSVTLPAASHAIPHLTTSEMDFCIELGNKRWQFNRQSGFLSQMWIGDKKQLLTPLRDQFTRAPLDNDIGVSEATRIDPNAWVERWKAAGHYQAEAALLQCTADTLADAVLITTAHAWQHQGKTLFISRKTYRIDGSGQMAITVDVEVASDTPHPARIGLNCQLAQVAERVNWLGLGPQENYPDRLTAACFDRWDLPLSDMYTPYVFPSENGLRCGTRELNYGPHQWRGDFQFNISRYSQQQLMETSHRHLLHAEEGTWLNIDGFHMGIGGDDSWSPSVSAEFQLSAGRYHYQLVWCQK
T4 sequence (P63165 whole entry, the tested form may be a part): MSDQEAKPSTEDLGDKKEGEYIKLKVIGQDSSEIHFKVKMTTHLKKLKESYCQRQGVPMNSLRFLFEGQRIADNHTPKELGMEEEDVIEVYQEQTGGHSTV
T3 sequence (P49327 whole entry, the tested form may be a part): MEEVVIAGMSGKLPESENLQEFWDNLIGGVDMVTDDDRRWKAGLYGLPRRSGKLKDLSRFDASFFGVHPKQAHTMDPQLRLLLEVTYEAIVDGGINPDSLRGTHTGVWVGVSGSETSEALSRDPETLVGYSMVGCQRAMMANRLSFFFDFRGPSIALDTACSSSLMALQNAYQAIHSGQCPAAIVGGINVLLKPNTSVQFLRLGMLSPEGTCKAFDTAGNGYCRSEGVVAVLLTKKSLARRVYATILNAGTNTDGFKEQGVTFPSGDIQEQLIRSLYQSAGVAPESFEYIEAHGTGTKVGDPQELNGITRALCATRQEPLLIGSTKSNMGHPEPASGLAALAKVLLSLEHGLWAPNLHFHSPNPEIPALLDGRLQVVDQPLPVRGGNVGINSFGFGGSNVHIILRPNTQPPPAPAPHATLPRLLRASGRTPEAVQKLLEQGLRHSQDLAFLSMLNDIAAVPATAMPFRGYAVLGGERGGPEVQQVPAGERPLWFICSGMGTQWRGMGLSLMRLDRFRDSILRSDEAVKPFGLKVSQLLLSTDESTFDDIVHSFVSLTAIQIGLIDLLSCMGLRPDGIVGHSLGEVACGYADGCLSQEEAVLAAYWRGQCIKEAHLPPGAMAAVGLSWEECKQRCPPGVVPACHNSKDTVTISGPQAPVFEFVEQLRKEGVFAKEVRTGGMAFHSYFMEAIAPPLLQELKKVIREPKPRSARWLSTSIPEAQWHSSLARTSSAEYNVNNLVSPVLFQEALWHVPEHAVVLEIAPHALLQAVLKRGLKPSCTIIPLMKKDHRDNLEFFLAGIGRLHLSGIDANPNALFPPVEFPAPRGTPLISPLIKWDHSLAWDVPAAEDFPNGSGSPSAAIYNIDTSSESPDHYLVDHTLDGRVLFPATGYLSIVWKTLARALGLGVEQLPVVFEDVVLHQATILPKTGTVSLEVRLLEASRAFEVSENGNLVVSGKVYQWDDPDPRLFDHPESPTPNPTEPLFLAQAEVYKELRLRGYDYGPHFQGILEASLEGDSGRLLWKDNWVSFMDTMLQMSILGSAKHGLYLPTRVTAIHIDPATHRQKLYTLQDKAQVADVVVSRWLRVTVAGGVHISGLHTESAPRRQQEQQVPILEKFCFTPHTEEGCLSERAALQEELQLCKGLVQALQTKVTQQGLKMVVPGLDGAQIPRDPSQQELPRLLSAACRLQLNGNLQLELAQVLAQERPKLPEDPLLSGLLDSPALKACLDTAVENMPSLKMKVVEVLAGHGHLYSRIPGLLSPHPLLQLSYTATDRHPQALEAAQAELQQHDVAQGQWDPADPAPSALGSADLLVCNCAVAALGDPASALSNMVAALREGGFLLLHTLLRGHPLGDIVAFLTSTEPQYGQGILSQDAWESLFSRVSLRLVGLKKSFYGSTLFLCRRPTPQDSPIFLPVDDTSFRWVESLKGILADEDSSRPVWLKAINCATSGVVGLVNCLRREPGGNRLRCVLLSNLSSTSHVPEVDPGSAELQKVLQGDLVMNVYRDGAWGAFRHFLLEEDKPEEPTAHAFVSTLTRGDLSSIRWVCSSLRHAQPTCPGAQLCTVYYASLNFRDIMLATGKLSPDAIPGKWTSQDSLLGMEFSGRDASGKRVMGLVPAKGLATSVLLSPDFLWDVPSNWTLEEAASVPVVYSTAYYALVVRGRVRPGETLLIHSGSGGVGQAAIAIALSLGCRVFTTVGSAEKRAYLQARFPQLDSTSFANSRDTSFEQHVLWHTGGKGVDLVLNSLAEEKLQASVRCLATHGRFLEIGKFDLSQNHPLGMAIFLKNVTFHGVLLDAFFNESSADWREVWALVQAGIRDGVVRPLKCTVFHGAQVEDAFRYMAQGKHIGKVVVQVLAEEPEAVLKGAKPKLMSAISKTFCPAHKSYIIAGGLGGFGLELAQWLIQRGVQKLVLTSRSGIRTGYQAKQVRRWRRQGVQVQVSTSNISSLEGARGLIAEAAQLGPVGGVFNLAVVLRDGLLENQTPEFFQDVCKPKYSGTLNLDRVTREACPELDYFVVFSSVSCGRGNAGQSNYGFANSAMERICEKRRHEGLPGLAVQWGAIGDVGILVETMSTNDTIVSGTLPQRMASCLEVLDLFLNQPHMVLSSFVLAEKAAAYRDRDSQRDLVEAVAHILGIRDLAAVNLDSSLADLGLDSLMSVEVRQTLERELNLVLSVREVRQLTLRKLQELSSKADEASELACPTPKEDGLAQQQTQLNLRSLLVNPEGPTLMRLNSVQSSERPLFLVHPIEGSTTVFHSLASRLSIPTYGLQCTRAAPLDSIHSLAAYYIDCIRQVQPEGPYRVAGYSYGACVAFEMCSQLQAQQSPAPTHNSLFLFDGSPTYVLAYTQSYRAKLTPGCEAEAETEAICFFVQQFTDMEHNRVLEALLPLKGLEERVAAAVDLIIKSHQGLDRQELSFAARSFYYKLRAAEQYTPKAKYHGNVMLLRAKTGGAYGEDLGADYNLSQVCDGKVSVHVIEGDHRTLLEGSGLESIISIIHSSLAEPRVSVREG

**Q.** Which results are given for `N#Cc1ccc(CSc2nnc(Nc3ccccc3)s2)cc1`?
**A.** IC50 [1]: 7.66 µM (active); IC50 [2]: 83.3 µM (inactive); IC50 [3]: 119 µM (inactive)

**Q.** For `N#Cc1cc2ccc(N3CCOCC3)cc2cc1C#N`, which AC50 [4] is on record?
**A.** Its AC50 is 3.05 µM (active).

**Q.** And the IC50 [5]?
**A.** Its IC50 is 5.9 µM (active).

**Q.** What about the IC50 [6] of the same compound?
**A.** Its IC50 is > 66.6 µM (inactive).

**Q.** And the IC50 [7]?
**A.** The IC50 was 4.31 µM (active).

**Q.** What about the AC50 [8] of the same compound?
**A.** Its AC50 is 29.9 µM (active).

**Q.** And the AC50 [9]?
**A.** Its AC50 is 116 µM (active).

**Q.** What about the IC50 [10] of the same compound?
**A.** Its IC50 is 100 µM (inactive).

**Q.** For `Cc1ccc(C(=O)CNc2ccc(Br)cc2)cc1`, which IC50 [11] is on record?
**A.** The IC50 was 7.47 µM (active).

**Q.** And the EC50 [12]?
**A.** The EC50 was > 40 µM (inactive).

**Q.** And the IC50 [13]?
**A.** The IC50 was > 80 µM (inactive).

**Q.** With `CCN1CCN(c2ccc(S(=O)(=O)N3CCCCC3)cc2NC(=O)/C=C/c2ccc([N+](=O)[O-])cc2)CC1` as the compound, how does the AC50 [14] read?
**A.** Its AC50 is 7.51 µM (active).

**Q.** What about the EC50 [15] of the same compound?
**A.** Its EC50 is > 91.2 µM (inactive).

**Q.** What about the EC50 [16] of the same compound?
**A.** Its EC50 is > 91.2 µM (inactive).

**Q.** What does the source list for `N#C/C(=N/Nc1ccccc1F)C(=N)N1CCOCC1`?
**A.** EC50 [15]: > 91.2 µM (inactive); EC50 [16]: > 91.2 µM (inactive)
